Assay results as given in patent publication US5480902A, “Thienylpyrrole fungicidal agents” (American Cyanamid Company, priority 1993, dated 1996).
Where two headings read alike, the source gives them in different places.

How the values were obtained:
Botrytis cinerea = assay: In vivo fungicidal activity on host plants, Pepper Botrytis (PB); details: sprayed on host plants before inoculation
[1] = system: Pseudocercosporella herpotrichoides; assay: In vitro fungicidal activity, growth inhibition of ground fungal mycelia (PSDCHE); type: cell-based; details: Oculimacula yallundae, 3-4 days at 21° C., averaged when more than one test, read-out: Growth inhibition rating, PSDCHE (converted)
Procedure: (§1) Test compounds are dissolved or suspended in acetone and dispersed into cell well plates containing a suspension of ground fungal mycelia in a nutrient broth. Assay plates are incubated for 3-4 days at 21° C. Growth inhibition is measured visually and is rated using the following scale:
(§2) Assay fungi include the plant pathogens, Pythium ultimum (Pythul); Rhizoctonia solani (Rhizso); Fusarium oxysporum f. sp. cucumerinum (Fusoxc); and Pseudocercosporella herpotrichoides (Psdche).
(§3) When more than one test is run, the data are averaged.

Cercospora beticola = assay: In vivo fungicidal activity on host plants, Sugar Beet Cercospora (SBC); details: sprayed on host plants before inoculation; note: ranges in brackets are in %
[2] = system: Erysiphe graminis f. sp. tritici; assay: In vivo fungicidal activity on host plants, Wheat Powdery Mildew (WPM); details: sprayed on host plants before inoculation
Venturia inaegualis = assay: In vivo fungicidal activity on host plants, Apple Scab (AS); details: sprayed on host plants before inoculation
Rhizoctonia solani = assay: In vitro fungicidal activity, growth inhibition of ground fungal mycelia (RHIZSO); type: cell-based; details: 3-4 days at 21° C., averaged when more than one test, read-out: Growth inhibition rating, RHIZSO
Procedure: as §1, §2, §3

[3] = system: Puccinia recondita f. sp. tritici; assay: In vivo fungicidal activity on host plants, Wheat Leaf Rust (WLR); details: 400 ppm; sprayed on host plants before inoculation
Pyricularia oryzae = type: in vivo; details: sprayed on host plants before inoculation
Pythium ultimum = assay: In vitro fungicidal activity, growth inhibition of ground fungal mycelia (PYTHUL); type: cell-based; details: Globisporangium ultimum, 3-4 days at 21° C., averaged when more than one test, read-out: Growth inhibition rating, PYTHUL (converted)
Procedure: as §1, §2, §3

Plasmopara viticola = assay: In vivo fungicidal activity on host plants, Grape Downy Mildew (GDM); details: sprayed on host plants before inoculation
[4] = system: Fusarium oxysporum f. sp. cucumerinum; assay: In vitro fungicidal activity, growth inhibition of ground fungal mycelia (FUSOXC); type: cell-based; details: read-out: Growth inhibition rating, FUSOXC
Procedure: as §1, §2, §3

[5] = 25 ppm, 3-4 days at 21° C., averaged when more than one test

Structure (SMILES)	Disease control rating, PB (Botrytis cinerea; 400 ppm)	inhibition at 25 ppm [1]	Disease control rating, SBC (Cercospora beticola; 400 ppm)	Disease control rating, WPM ([2]; 400 ppm)	Disease control rating, AS (Venturia inaegualis; 400 ppm)	inhibition at 25 ppm (Rhizoctonia solani)	Disease control rating, WLR [3]	Disease control rating, RB (Pyricularia oryzae; 400 ppm)	inhibition at 25 ppm (Pythium ultimum)	Disease control rating, GDM (Plasmopara viticola; 400 ppm)	inhibition at 25 ppm [4]	inhibition at 25 ppm [4, 5]	Disease control rating, PB (Botrytis cinerea; 200 ppm)	Disease control rating, SBC (Cercospora beticola; 200 ppm)	Disease control rating, AS (Venturia inaegualis; 200 ppm)	Disease control rating, GDM (Plasmopara viticola; 200 ppm)	Disease control rating, RB (Pyricularia oryzae; 200 ppm)	Disease control rating, WPM ([2]; 200 ppm)
N#Cc1c(-c2oc3ccccc3c2Cl)[nH]c(Cl)c1Cl [Compound 1, 4,5-Dichloro-2-(3-chloro-2-benzofuranyl)pyrrole-3-carbonitrile]	2 (15-29)	1 to 29%	0 (0)	0 (0)	0 (0)	1 to 29%	2 (15-29)	4 (45-59)	1 to 29%	–	–	–	–	–	–	–	–	–
N#Cc1cc(C(F)(F)F)[nH]c1-c1cccs1 [Compound 2, 2-(2-Thienyl)-5-(trifluoromethyl)pyrrole-3-carbonitrile]	–	–	0 (0)	9 (100)	9 (100)	–	9 (100)	5 (60-74)	100%	9 (100)	–	–	–	–	–	–	–	–
N#Cc1c(-c2ccc(Br)s2)[nH]c(C(F)(F)F)c1Br [Compound 3, 4-Bromo-2-(5-bromo-2-thienyl)-5-(trifluoromethyl)pyrrole-3-carbonitrile]	–	30 to 59%	–	7 (90-95)	9 (100)	–	9 (100)	0 (0)	–	9 (100)	–	–	–	–	–	–	–	–
FC(F)(F)c1[nH]c(-c2ccc(Cl)cc2)cc1-c1ccco1 [Compound 4, 5-(p-Chlorophenyl)-3-(2-furyl)-2-(trifluoromethyl)pyrrole]	0 (0)	100%	0 (0)	0 (0)	2 (15-29)	–	6 (75-89)	1 (1-14)	60 to 89%	8 (96-99)	–	–	–	–	–	–	–	–
O=[N+]([O-])c1ccc(-c2c(C(F)(F)F)[nH]c(-c3ccc(Cl)cc3)c2[N+](=O)[O-])s1 [Compound 5, 2-(p-Chlorophenyl)-3-nitro-4-(5-nitro-2-thienyl)-5-(trifluoromethyl)pyrrole]	0 (0)	60 to 89%	–	0 (0)	4 (45-59)	90 to 99%	6 (75-89)	0 (0)	–	9 (100)	30 to 59%	–	–	–	–	–	–	–
N#Cc1cc(-c2ccc(Cl)s2)[nH]c1Cl [Compound 6, 2-Chloro-5-(5-chloro-2-thienyl)pyrrole-3-carbonitrile]	0 (0)	60 to 89%	6 (75-89)	0 (0)	9 (100)	60 to 89%	6 (75-89)	0 (0)	–	7 (90-95)	–	–	–	–	–	–	–	–
O=[N+]([O-])c1c(-c2ccc(Cl)cc2)[nH]c(C(F)(F)F)c1-c1csc(Br)c1 [Compound 8, 3-(5-Bromo-3-thienyl)-5-(p-chlorophenyl)-4-nitro-2-(trifluoromethyl)pyrrole]	0 (0)	0%	–	0 (0)	8 (96-99)	30 to 59%	7 (90-95)	4 (45-59)	0%	9 (100)	–	0%	–	–	–	–	–	–
O=[N+]([O-])c1c(-c2ccc(Cl)cc2)[nH]c(C(F)(F)F)c1-c1csc(Br)c1Br [Compound 10, 2-(p-Chlorophenyl)-4-(4,5-dibromo-3-thienyl)-3-nitro-5-(trifluoromethyl)pyrrole]	0 (0)	0%	0 (0)	4 (45-59)	0 (0)	–	–	7 (90-95)	0%	7 (90-95)	–	–	–	–	–	–	–	–
N#Cc1cc(C(F)(F)F)[nH]c1-c1ccco1 [Compound 11, 2-(2-Furyl)-5-(trifluoromethyl)pyrrole-3-carbonitrile]	–	0%	–	–	–	–	–	–	90 to 99%	–	–	0%	0 (0)	0 (0)	0 (0)	0 (0)	0 (0)	–
N#Cc1c(-c2cccs2)[nH]c(C(F)(F)F)c1Cl [Compound 12, 4-Chloro-2-(2-thienyl)-5-(trifluoromethyl)pyrrole-3-carbonitrile]	–	0%	–	–	–	90 to 99%	–	–	90 to 99%	–	–	0%	0 (0)	0 (0)	4 (45-59)	8 (96-99)	0 (0)	8 (96-99)
CCOCn1c(-c2ccc(Br)s2)c(C#N)c(Br)c1C(F)(F)F [Compound 13, 4-Bromo-2-(5-bromo-2-thienyl)-1-(ethoxymethyl)-5-(trifluoromethyl)pyrrole-3-carbonitrile]	–	0%	–	–	–	30 to 59%	–	–	0%	–	–	0%	0 (0)	0 (0)	0 (0)	0 (0)	0 (0)	9 (100)
N#Cc1cc(C(F)(F)F)[nH]c1-c1ccc(Br)o1 [Compound 14, 2-(5-Bromo-2-furyl)-5-(trifluoromethyl)pyrrole-3-carbonitrile]	–	0%	–	–	–	30 to 59%	–	–	–	–	–	0%	0 (0)	0 (0)	0 (0)	6 (75-89)	0 (0)	6 (75-89)
N#Cc1cc(C(F)(F)F)[nH]c1-c1ccc(Br)s1 [Compound 15, 2-(5-Bromo-2-thienyl)-5-(trifluoromethyl)pyrrole-3-carbonitrile]	–	0%	–	–	–	60 to 89%	–	–	0%	–	–	0%	–	–	–	–	–	–
N#Cc1cc(C(F)(F)F)[nH]c1-c1ccc(Cl)s1 [Compound 16, 2-(5-Chloro-2-thienyl)-5-(trifluoromethyl)pyrrole-3-carbonitrile]	–	0%	–	–	–	60 to 89%	–	–	0%	–	–	0%	–	–	–	–	–	–
N#Cc1c(-c2ccc(Cl)s2)[nH]c(C(F)(F)F)c1Br [Compound 17, 4-Bromo-2-(5-chloro-2-thienyl)-5-(trifluoromethyl)pyrrole-3-carbonitrile]	–	0%	–	–	–	60 to 89%	–	–	30 to 59%	–	–	0%	–	–	–	–	–	–
CCOCn1c(-c2ccc(Cl)s2)c(C#N)c(Br)c1C(F)(F)F [Compound 18, 4-Bromo-2-(5-chloro-2-thienyl)-1-(ethoxymethyl)-5-(trifluoromethyl)pyrrole-3-carbonitrile]	–	0%	–	–	–	30 to 59%	–	–	0%	–	–	0%	–	–	–	–	–	–
N#Cc1c(-c2ccc(Br)o2)[nH]c(C(F)(F)F)c1Br [Compound 19, 4-Bromo-2-(5-bromo-2-furyl)-5-(trifluoromethyl)pyrrole-3-carbonitrile]	–	0%	–	–	–	0%	–	–	0%	–	–	0%	–	–	–	–	–	–
N#Cc1cc(C(F)(F)F)[nH]c1-c1cc(Br)cs1 [Compound 20, 2-(4-Bromo-2-thienyl)-5-(trifluoromethyl)pyrrole-3-carbonitrile]	–	0%	–	–	–	0%	–	–	0%	–	–	0%	–	–	–	–	–	–
N#Cc1c(-c2cc(Br)c(Br)s2)[nH]c(C(F)(F)F)c1Br [Compound 21, 4-Bromo-2-(4,5-dibromo-2-thienyl)-5-(trifluoromethyl)pyrrole-3-carbonitrile]	–	0%	–	–	–	0%	–	–	0%	–	–	0%	–	–	–	–	–	–
CCOCn1c(-c2ccc(Br)o2)c(C#N)c(Br)c1C(F)(F)F [Compound 22, 4-Bromo-2-(5-bromo-2-furyl)-1-(ethoxymethyl)-5-(trifluoromethyl)pyrrole-3-carbonitrile]	–	0%	–	–	–	0%	–	–	0%	–	–	0%	–	–	–	–	–	–
